In one assay the test system is Desulfovibrio vulgaris. Nature of the assay: Log10 reduction of viable anaerobe cells in saline phosphate buffer suspension (serial dilution into API RP 38 media vials). The format is cell-based. As to conditions: for Log10 Reduction Anaerobes: pH 7.5 phosphate buffer, room temperature; for efficacy against the anaerobe Desulfovibrio vulgaris (in words): agent alone. How it is done: (§1) A suspension of Desulfovibrio vulgaris plus Enterobacter aerogenes bacteria containing from 1××10^6 to 1×10^8 cells/mL was prepared in sterile pH 7.5 phosphate buffer containing varying levels of sodium chloride to give the desired total dissolved solids (TDS) concentration. Aliquots of this suspension were dosed with the indicated concentrations of a phosphonium compound and a hypohalite compound with the concentrations being measured as ppm by weight of the stated compounds added to the dosed suspension. The mixtures were allowed to stand at room temperature. At the designated contact times, each mixture was sampled to determine the total number of viable cells of both Desulfovibrio vulgaris and Enterobacter aerogenes by serial 10-fold dilution into API RP 38 media vials and anaerobic acid producing media vials, respectively. The vials were incubated at 37° C. for 72 hours. Results were recorded as cells per millilitre.
(§2) Aqueous media inoculated with anaerobe and facultative anaerobe culture and having a TDS of 10,000 mg l^−1; 20,000 mg l^−1; or 30,000 mg l^−1 was treated with treatment agents comprising: (i) sodium hypochlorite; (ii) tri n-butyl n-tetradecyl phosphonium chloride (TTPC) or (iii) a combination of sodium hypochlorite and TTPC.
(§3) TTPC was used in the form of Bellacide 355, an aqueous composition of TTPC and water consisting of water and […] of TTPC available from BWA Water Additives.
(§4) Sodium hypochlorite was used in the form of Clorox, an aqueous composition of sodium hypochlorite and water consisting of water and 6% by weight sodium hypochlorite available from The Clorox Company.
(§5) The efficacy of the treatment agents was evaluated by measuring the Log 10 Reduction of the anaerobe Desulfovibrio vulgaris and the facultative anaerobe Enterobacter aerogenes [after contact times of 10 and 30 minutes as detailed in Table 1. For TTPC and sodium hypochlorite the stated ppm values relate to the amount added. The addition of 35 ppm sodium hypochlorite to the aqueous system provided 2 ppm of free sodium hypochlorite in the treated aqueous system.

For the next assay, the system named is Enterobacter aerogenes. Nature of the assay: Log10 reduction of viable facultative anaerobe cells in saline phosphate buffer suspension (serial dilution into anaerobic acid producing media vials). Format: cell-based. The following applies: for Log10 Reduction Facultative Anaerobes: pH 7.5 phosphate buffer, room temperature; for efficacy against the facultative anaerobe Enterobacter aerogenes (in words): agent alone. How it is done:
as §1, §2, §3, §4, §5

[1] abbreviates: TDS 20,000 mg l-1, contact time 30 minutes, listed as 3 (comparative).
The mark [2] stands for this setting: TDS 20,000 mg l-1, contact time 30 minutes, listed as 4 (comparative).
Setting [3] is: TDS 30,000 mg l-1, contact time 30 minutes.
[4] abbreviates: TDS 30,000 mg l-1, contact time 10 minutes.
The mark [5] stands for this setting: TDS 30,000 mg l-1, contact times of 10 and 30 minutes.

Data on 9 compounds can be found in patent US10905125B2, “Biocidal compositions and method of treating water using thereof” (BWA WATER ADDITIVES UK LIMITED, priority 2014, dated 2021).

For the compound `CCCCCCCCCCCCCC[P+](CCCC)(CCCC)CCCC.[Cl-]` [Example 1], the “Log10 Reduction Anaerobes” value with Desulfovibrio vulgaris (TDS 10,000 mg l-1, contact time 30 minutes) was determined as 6. For the same compound, the “Log10 Reduction Facultative Anaerobes” value in the assay on Enterobacter aerogenes (TDS 10,000 mg l-1, contact time 30 minutes, listed as 1 (comparative)) came out at 6.

Turning to `CCCCCCCCCCCCCC[P+](CCCC)(CCCC)CCCC.[Cl-]` [Example 2], the “Log10 Reduction Facultative Anaerobes” value with Enterobacter aerogenes (TDS 10,000 mg l-1, contact time 30 minutes, listed as 2 (comparative)) was 8.

For `CCCCCCCCCCCCCC[P+](CCCC)(CCCC)CCCC.[Cl-]` [Example 3], the “Log10 Reduction Anaerobes” value in the assay on Desulfovibrio vulgaris (setting [1]) came to 3. In the assay on Enterobacter aerogenes (setting [1]), the “Log10 Reduction Facultative Anaerobes” value turned out to be 0.

With `CCCCCCCCCCCCCC[P+](CCCC)(CCCC)CCCC.[Cl-]` [Example 4], the “Log10 Reduction Anaerobes” value in the assay on Desulfovibrio vulgaris (setting [2]) is recorded as 6. In the assay with Enterobacter aerogenes (setting [2]), the “Log10 Reduction Facultative Anaerobes” value was found to be 5.

Consider `CCCCCCCCCCCCCC[P+](CCCC)(CCCC)CCCC.[Cl-]` [Example 5], for which the “Log10 Reduction Anaerobes” value in the assay with Desulfovibrio vulgaris (setting [3]) came out at 0. For the same compound, the “Log10 Reduction Facultative Anaerobes” value in the assay on Enterobacter aerogenes (setting [3]) is 0.

In the case of `[Na+].[O-]Cl` [Example 6], the “Log10 Reduction Anaerobes” value in the assay with Desulfovibrio vulgaris (setting [3]) is listed as 3. In the assay on Enterobacter aerogenes (setting [3]), the “Log10 Reduction Facultative Anaerobes” value stood at 3.

Regarding `[Na+].[O-]Cl` [Example 11], the “Log10 Reduction Anaerobes” value in the assay with Desulfovibrio vulgaris (setting [4]) stood at 5. Moreover, the “Log10 Reduction Facultative Anaerobes” value in the assay on Enterobacter aerogenes (setting [4]) is 2.

As to `OCl` [Sodium hypochlorite, sodium hypochlorite], the “efficacy against the anaerobe Desulfovibrio vulgaris (in words)” value in the assay on Desulfovibrio vulgaris (setting [5]) was “some efficacy”. Also, in the assay with Enterobacter aerogenes (setting [5]), the “efficacy against the facultative anaerobe Enterobacter aerogenes (in words)” value is listed as “some efficacy”.

Take `CCCCCCCCCCCCCC[P+](CCCC)(CCCC)CCCC.[Cl-]` [TTPC, tri n-butyl n-tetradecyl phosphonium chloride]: the “efficacy against the anaerobe Desulfovibrio vulgaris (in words)” value with Desulfovibrio vulgaris (setting [3]) is “ineffective”. Also, in the assay with Enterobacter aerogenes (setting [3]), the “efficacy against the facultative anaerobe Enterobacter aerogenes (in words)” value was “ineffective”.
